Data on 14 compounds can be found in patent US7960427B2, “5-hydroxyindole-3-carboxylate derivatives and uses thereof” (priority 2004, dated 2011).

≈ marks a conversion by molar mass, not a printed value. Structures can show the parent of a compound that is named as a salt. A value given as a limit tells only on which side of the number the result lay.

In one series the test system is 2.2.15 cells. Nature of the series: Cytotoxicity (TC50) in 2.2.15 cells. The series is classed as cell-based. How it is done:
(§1) All compounds were evaluated for their anti-HBV activities, namely the ability to inhibit the replication of HBV DNA and the production of HBsAg and HBeAg in HBV-infected 2.2.15 cells.
(§2) The samples were dissolved in DMSO for appropriate concentrations, and then each was diluted 3-fold with culture medium. The 2.2.15 cells were planted into 96-well culture plates. […] The culture supernatants and 2.2.15 cells were collected respectively on the 8th plant day. The secretion concentrations of HBsAg and HBeAg in the culture supernatants were measured by RIA on SPRIA Kit for Detection of HBsAg and HBeAg (Beijing North Institute of Biological Technology), and the replication of HBV DNA was measured by dot hybridization with a^32PdCTP (FuRui Biological Technology Ltd., China).

The next series has as its system HBV DNA. Nature of the series: In vitro anti-HBV activity: replication of HBV DNA in 2.2.15 cells (dot hybridization). As to conditions: for IC50: Hepatitis B virus, read-out: DNA replication IC50; for DNA replication SI: selectivity index. The series is classed as cell-based, Hepatitis B virus (HBV). The protocol: as §1, §2
Another series deals with T1, HIV-1 protease (Human immunodeficiency virus type 1 group M subtype B, UniProt P04585).
T1 construct: The genetically engineered target enzyme (HIV-1 protease, preserved at −85° C.)
Nature of the series: Anti-HIV-1 protease activity (fluorescence labeled substrate). As to conditions: for inhibition ratio at 0.5 ug/ml: sample concentration 0.5 ug/ml; for inhibition ratio at 2.0 ug/ml: sample concentration 2.0 ug/ml; for inhibition ratio at 10 ug/ml: sample concentration 10 ug/ml; for inhibition ratio at 50 ug/ml: sample concentration 50 ug/ml; for inhibition ratio at 250 ug/ml: sample concentration 250 ug/ml. The series is classed as biochemical. The protocol:
HIV-1 protease can cut the fluorescence labeled substrate under optimal condition and reaction system, so the activity of enzyme is determined by the fluorescence in the product of enzymatic reaction. The samples are added into the reaction system to observe the inhibitive effect on the enzyme.
The samples and the reference drug Indinavir ([…].) were dissolved in DMSO or redistilled water for appropriate concentration. Each was diluted 5-fold and then added into the buffer containing fluorescence labeled substrate (MP Co.). The genetically engineered target enzyme (HIV-1 protease, preserved at −85° C.) was added to the buffer and incubated under the optimal reaction condition. The fluorescence was determined by FLUO star Galaxy fluorometer.

In the next series the test system is HBsAg. Nature of the series: In vitro anti-HBV activity: HBsAg production in HBV-infected 2.2.15 cells (RIA). It is filed as cell-based, Hepatitis B virus (HBV). As to conditions: for IC50: Hepatitis B virus, read-out: HBsAg IC50; for HBsAg SI: selectivity index. How it is done:
as §1, §2

Series [1] concerns influenza A virus, strain A/jifang/90-15. Nature of the series: microbe, parasite or virus in culture. The series is classed as cell-based. The following applies: Influenza strain A/jifang/90-15, MDCK cells, CPE, Reed-Muench.

The IC50 is the concentration that gives 50% inhibition. As for `CCOC(=O)c1c(CSc2ccc(F)cc2)n(C2CC2)c2cc(Br)c(O)c(CN3CCN(C)CC3)c12` [Example 19, Ethyl 6-bromo-1-cyclopropyl-5-hydroxy-4-[(4-methyl-1-piperazinyl)methyl]-2-[(4-fluorophenyl)thiomethyl]-1H-indole-3-carboxylate dihydrochloride], in the series with 2.2.15 cells, the TC50 came to 37.04 µg/mL. For the same compound, in the series on HBV DNA, the IC50 came to 13 µg/mL and the “DNA replication SI” value is given as 2.85. On HIV-1 protease, it took 232 µM to reach half-maximal inhibition (IC50), the “inhibition ratio at 0.5 ug/ml” value is −5.6, the “inhibition ratio at 2.0 ug/ml” value is listed as −8.9 and the “inhibition ratio at 10 ug/ml” value was −8.9. In addition, at HIV-1 protease, the “inhibition ratio at 50 ug/ml” value is 20.7 and the “inhibition ratio at 250 ug/ml” value is 63.9.
`CCOC(=O)c1c(C[S+]([O-])Cc2cscn2)n(C2CC2)c2cc(Br)c(O)c(CN(C)C)c12` (stereo not drawn) [Example 52, Ethyl 6-bromo-1-cyclopropyl-4-[(dimethylamino)methyl]-5-hydroxy-2-[(4-thiazolylmethyl)sulfinylmethyl]-1H-indole-3-carboxylate dihydrochloride]: the TC50 in the series on 2.2.15 cells was 64.15 µg/mL. Further, in the series with HBV DNA, the IC50 was found to be 3.51 µg/mL and the “DNA replication SI” value is 18.27. Further, in the series with HBsAg, the IC50 was determined as 4.79 µg/mL and the “HBsAg SI” value is 13.39.
Regarding `CCOC(=O)c1c(CS(=O)(=O)c2cccc(OC)c2)n(C)c2cc(Br)c(O)c(CN(C)C)c12` [Example 55, Ethyl 6-bromo-4-[(dimethylamino)methyl]-5-hydroxy-1-methyl-2-[(3-methoxyphenyl)sulfonylmethyl]-1H-indole-3-carboxylate], the TC50 in the series with 2.2.15 cells turned out to be 21.56 µg/mL (≈ 40 µM). In the series on HBV DNA, the IC50 is 2.2 µg/mL (≈ 4.08 µM) and the “DNA replication SI” value came to 9.7. In addition, on HIV-1 protease, the IC50 was 49 µM, the “inhibition ratio at 0.5 ug/ml” value worked out at 2.1, the “inhibition ratio at 2.0 ug/ml” value stood at 6.7 and the “inhibition ratio at 10 ug/ml” value is on record as 0.1. For the same compound, on HIV-1 protease, the “inhibition ratio at 50 ug/ml” value amounted to 30.5 and the “inhibition ratio at 250 ug/ml” value is on record as 98.0.
As to `CCOC(=O)c1c(C[S+]([O-])c2ccccc2C)n(C)c2cc(Br)c(O)c(CN3CCOCC3)c12` (stereo not drawn) [Example 57, Ethyl 6-bromo-5-hydroxy-1-methyl-4-(morpholinomethyl)-2-[(2-methylphenyl)sulfinylmethyl]-1H-indole-3-carboxylate], the TC50 in the series on 2.2.15 cells amounted to 51.53 µg/mL (≈ 93.8 µM). Further, in the series on HBV DNA, the IC50 was 17 µg/mL (≈ 30.9 µM) and the “DNA replication SI” value worked out at 3.03. At HIV-1 protease, the “inhibition ratio at 0.5 ug/ml” value stood at 6.4, the “inhibition ratio at 2.0 ug/ml” value is 9.2, the “inhibition ratio at 10 ug/ml” value came out at 1.9 and the “inhibition ratio at 50 ug/ml” value is 15.5. Besides, the “inhibition ratio at 250 ug/ml” value at HIV-1 protease was 41.0.
Compound `CCOC(=O)c1c(C[S+]([O-])c2ccc(F)cc2)n(C)c2cc(Br)c(O)c(CN3CCOCC3)c12` (stereo not drawn) [Example 58, Ethyl 6-bromo-5-hydroxy-1-methyl-4-(morpholinomethyl)-2-[(4-fluorophenyl)sulfinylmethyl]-1H-indole-3-carboxylate] registered a TC50 with 2.2.15 cells above 500 µg/mL. In the series on HBV DNA, the IC50 was 57.6 µg/mL (≈ 104 µM) and the “DNA replication SI” value is above 8.7. Moreover, at HIV-1 protease, the “inhibition ratio at 0.5 ug/ml” value was found to be 11.7, the “inhibition ratio at 2.0 ug/ml” value is recorded as 11.6, the “inhibition ratio at 10 ug/ml” value is given as 15.9 and the “inhibition ratio at 50 ug/ml” value turned out to be 22.9. For the same compound, the “inhibition ratio at 250 ug/ml” value on HIV-1 protease stood at 37.4.
As to `CCOC(=O)c1c(C[S+]([O-])c2ccc(F)c(F)c2)n(C2CC2)c2cc(Br)c(O)c(CN3CCN(C)CC3)c12` (stereo not drawn) [Example 67, Ethyl 6-bromo-1-cyclopropyl-5-hydroxy-4-[(4-methyl-1-piperazinyl)methyl]-2-[(3,4-difluorophenyl)sulfinylmethyl]-1H-indole-3-carboxylate dihydrochloride], the TC50 in the series with 2.2.15 cells came to 34.35 µg/mL. In the series on HBV DNA, the IC50 amounted to 5.4 µg/mL and the “DNA replication SI” value was found to be 6.35. For the same compound, at HIV-1 protease, the “inhibition ratio at 0.5 ug/ml” value worked out at 3.2, the “inhibition ratio at 2.0 ug/ml” value came to 10.5, the “inhibition ratio at 10 ug/ml” value amounted to 9.4 and the “inhibition ratio at 50 ug/ml” value turned out to be 0.5. On HIV-1 protease, the “inhibition ratio at 250 ug/ml” value came out at 19.3.
In turn, `CCOC(=O)c1c(C[S+]([O-])Cc2ccco2)n(C)c2cc(Br)c(O)c(CN3CCCC3)c12` (stereo not drawn) [Example 71, Ethyl 6-bromo-5-hydroxy-1-methyl-4-(1-pyrrolidinylmethyl)-2-[(2-furylmethyl)sulfinylmethyl]-1H-indole-3-carboxylate] came in with a TC50 in the series with 2.2.15 cells of 38.32 µg/mL (≈ 73.2 µM). In the series with HBV DNA, the IC50 amounted to 23.9 µg/mL (≈ 45.6 µM) and the “DNA replication SI” value came out at 1.60. In the series on HBsAg, the IC50 is 18.4 µg/mL (≈ 35.1 µM) and the “HBsAg SI” value is recorded as 2.09.
Taken in the same sequence, the figures for `CCOC(=O)c1c(C[S+]([O-])c2ccc(C(F)(F)F)cc2)n(C2CC2)c2cc(Br)c(O)c(CN(C)C)c12` (stereo not drawn) [Example 79, Ethyl 6-bromo-1-cyclopropyl-4-[(dimethylamino)methyl]-5-hydroxy-2-[(4-trifluoromethylphenyl)sulfinylmethyl]-1H-indole-3-carboxylate] were 17.12 µg/mL (≈ 29.1 µM), 4.47 µg/mL (≈ 7.61 µM), 3.83, 6.3 µg/mL (≈ 10.7 µM) and 2.72.
For the compound `CCOC(=O)c1c(CSc2nc3ccccc3[nH]2)n(C)c2cc(Br)c(O)c(Cn3ccnc3)c12.Cl` [Example 94, Ethyl 6-bromo-5-hydroxy-4-[(1-imidazolyl)methyl]-1-methyl-2-[(benzo[d]imidazol-2-yl)thiomethyl]-1H-indole-3-carboxylate hydrochloride], the TC50 in the series with 2.2.15 cells turned out to be 53.42 µg/mL. In addition, in the series on HBsAg, the IC50 stood at 7.37 µg/mL and the “HBsAg SI” value turned out to be 7.25.
`CCOC(=O)c1c(C[S+]([O-])c2ccccc2)n(C)c2cc(Br)c(O)c(Cn3ccnc3)c12` (stereo not drawn) [Example 116, Ethyl 6-bromo-5-hydroxy-4-[(1-imidazolyl)methyl]-1-methyl-2-(phenylsulfinylmethyl)-1H-indole-3-carboxylate]: in the series on 2.2.15 cells, the TC50 turned out to be 8.12 µg/mL (≈ 15.7 µM). In the series on HBV DNA, the IC50 was 2.56 µg/mL (≈ 4.96 µM) and the “DNA replication SI” value came to 3.17. In addition, on HIV-1 protease, the “inhibition ratio at 0.5 ug/ml” value is given as 0.4, the “inhibition ratio at 2.0 ug/ml” value is −2.4, the “inhibition ratio at 10 ug/ml” value was −1.5 and the “inhibition ratio at 50 ug/ml” value amounted to 11.1. On HIV-1 protease, the “inhibition ratio at 250 ug/ml” value stood at 37.5.
Take `CCOC(=O)c1c(C[S+]([O-])c2ccc(F)cc2)n(C2CC2)c2cc(Br)c(O)c(Cn3ccnc3C)c12` (stereo not drawn) [Example 138, Ethyl 6-bromo-1-cyclopropyl-5-hydroxy-4-[(2-methyl-1-imidazolyl)methyl]-2-[(4-fluorophenyl)sulfinylmethyl]-1H-indole-3-carboxylate]: the TC50 in the series with 2.2.15 cells came to 18.52 µg/mL (≈ 32.2 µM). In the series on HBV DNA, the IC50 turned out to be 5 µg/mL (≈ 8.7 µM) and the “DNA replication SI” value was determined as 3.74. Also, at HIV-1 protease, the IC50 is 111 µM, the “inhibition ratio at 0.5 ug/ml” value turned out to be 6.8, the “inhibition ratio at 2.0 ug/ml” value was −2.3 and the “inhibition ratio at 10 ug/ml” value was determined as 6.4. At HIV-1 protease, the “inhibition ratio at 50 ug/ml” value turned out to be 12.7 and the “inhibition ratio at 250 ug/ml” value is 75.7.
The compound `CCOC(=O)c1c(C[S+]([O-])c2ccc(F)cc2)n(C2CC2)c2cc(Br)c(O)c(CNC(=N)N)c12` (stereo not drawn) [Example 154, Ethyl 6-bromo-1-cyclopropyl-4-(guanidinylmethyl)-5-hydroxy-2-[(4-fluorophenyl)sulfinylmethyl]-1H-indole-3-carboxylate] returned a TC50 in the series with 2.2.15 cells of 18.52 µg/mL (≈ 33.6 µM). Besides, in the series on HBV DNA, the IC50 amounted to 5.2 µg/mL (≈ 9.43 µM) and the “DNA replication SI” value is listed as 3.63. At HIV-1 protease, half-maximal inhibition (IC50) required 43.5 µM, the “inhibition ratio at 0.5 ug/ml” value was found to be 3.2, the “inhibition ratio at 2.0 ug/ml” value is on record as 13.2 and the “inhibition ratio at 10 ug/ml” value worked out at 4.8. Besides, on HIV-1 protease, the “inhibition ratio at 50 ug/ml” value is on record as 19.8 and the “inhibition ratio at 250 ug/ml” value is on record as 109.3.
In turn, `CCOC(=O)c1c(CSc2nc3ccccc3[nH]2)n(C)c2cc(Br)c(O)c(Cn3ccnc3C)c12.Cl` [Example 181, Ethyl 6-bromo-5-hydroxy-1-methyl-4-[(2-methyl-1-imidazolyl)methyl]-2-[(benzo[d]imidazol-2-yl)thiomethyl]-1H-indole-3-carboxylate hydrochloride] displayed a TC50 with 2.2.15 cells of 21.38 µg/mL. In the series with HBsAg, the IC50 was determined as 1.55 µg/mL and the “HBsAg SI” value was found to be 13.79.
The compound `NC(=O)c1ncn([C@@H]2O[C@H](CO)[C@@H](O)[C@H]2O)n1` [Ribovirin, reference compound] had an IC50 in series [1] above 33.81 µg/mL.
